Experimental data from article PMC6934184, “Selective DNA-PKcs inhibition extends the therapeutic index of localized radiotherapy and chemotherapy” (The Journal of Clinical Investigation, 2019).

Molecular target: T1, PIM1 (Homo sapiens, UniProt P11309)
T1 construct: purchased Thermo Fisher Scientific (Life Technologies) SelectScreen
Assay: SelectScreen Z'LYTE
Assay type: biochemical
Procedure, shortened: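 Percent values come from Thermo SelectScreen profiling of NU5455, combining activity and binding assays. CSF1R was run in Z'LYTE format at Km app ATP, and CAMK1 in Adapta format with ATP listed at 10.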

T1 sequence (P11309 whole entry): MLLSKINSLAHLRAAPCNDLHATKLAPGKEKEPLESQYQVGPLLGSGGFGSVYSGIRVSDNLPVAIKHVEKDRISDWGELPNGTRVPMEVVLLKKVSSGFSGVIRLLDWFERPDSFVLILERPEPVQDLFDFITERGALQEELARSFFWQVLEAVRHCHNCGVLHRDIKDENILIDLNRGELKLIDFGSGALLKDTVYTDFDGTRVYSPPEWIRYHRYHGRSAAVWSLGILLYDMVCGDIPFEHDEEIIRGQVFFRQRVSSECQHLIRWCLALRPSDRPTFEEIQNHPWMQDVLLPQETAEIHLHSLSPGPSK

For `CN(C(=O)CN1CCOCC1)c1ccc2sc3c(-c4cccc5c(=O)cc(N6CC7CCC(C6)O7)oc45)cccc3c2c1` [NU5455], which inhibition at 1 µM is on record?
The inhibition at 1 µM was -1%.
